{"source": "paper PMC4078735", "about": "(Journal of biomolecular screening, 2013)", "key": {"[1]": {"details": "PAMPA; for Permeability (Log Pe, cm/sec) Porcine polar brain lipid (PBL): pig, pH 7.4"}, "[2]": {"details": "PAMPA"}, "[3]": {"details": "PAMPA; for Permeability (Log Pe, cm/sec) Microvessel lipid + cholesterol (MVLC): pH 7.4"}, "[4]": {"details": "PAMPA", "remark": "listed apart in the source"}, "in vitro [5]": {"experiment": "in vitro", "details": "PAMPA, pH 7.4"}, "in vitro [6]": {"experiment": "in vitro", "details": "PAMPA, pH 7.4", "remark": "listed apart in the source"}}, "note": "Where a name gives a salt, the structure may show the parent alone.", "data": [{"smiles": "CCC(=O)C(CC(C)N(C)C)(c1ccccc1)c1ccccc1", "note": "(racemic) [Methadone, (±) methadone HCl]", "values": [{"measurement": "Permeability (Log Pe, cm/sec) Porcine polar brain lipid (PBL)", "setting": "[1]", "result": "−0.37 ± 0.07", "unit": "cm/sec"}, {"measurement": "Permeability (Log Pe, cm/sec) Dodecane", "setting": "[2]; pH 7.4", "result": "−1.54 ± 0.05", "unit": "cm/sec"}]}, {"smiles": "Cc1nnc2n1-c1ccc(Cl)cc1C(c1ccccc1)=NC2", "note": "[Alprazolam, alprazolam]", "values": [{"measurement": "Permeability in the PBL model (in words)", "setting": "[1]", "result": "highly permeability"}, {"measurement": "Permeability in the MVLC model (in words)", "setting": "[3]", "result": "highly permeability"}, {"measurement": "Permeability in the MVL model (in words)", "setting": "[4]", "result": "highly permeability"}]}, {"smiles": "CO[C@]12CC[C@@]3(C[C@@H]1[C@](C)(O)C(C)(C)C)[C@H]1Cc4ccc(O[C@@H]5O[C@H](C(=O)O)[C@@H](O)[C@H](O)[C@H]5O)c5c4[C@@]3(CCN1CC1CC1)[C@H]2O5", "note": "[Buprenorphine glucuronide, buprenorphine-3-β-D-glucuronide]", "values": [{"measurement": "Permeability (Log Pe, cm/sec) Microvessel lipid + cholesterol (MVLC)", "setting": "[3]", "result": "−3.27 ± 0.21", "unit": "cm/sec"}]}, {"smiles": "Cn1c(=O)c2c(ncn2C)n(C)c1=O", "note": "[Caffeine, caffeine]", "values": [{"measurement": "Papp at 2 h, 2 µM", "setting": "in vitro [5]", "result": 724, "unit": "×10⁻⁶ cm/s"}]}, {"smiles": "CN1CC[C@]23c4c5ccc(O)c4O[C@H]2[C@@H](O)CC[C@H]3[C@H]1C5", "note": "[Dihydromorphine, dihydromorphine]", "values": [{"measurement": "Permeability (Log Pe, cm/sec) Porcine polar brain lipid (PBL)", "setting": "[1]", "result": "−1.76 ± 0.09", "unit": "cm/sec"}, {"measurement": "Papp", "setting": "in vitro [5]", "result": 1510, "unit": "×10⁻⁶ cm/s"}, {"measurement": "Ability to cross the dodecane barrier", "setting": "[2]", "result": "unable to cross the barrier"}]}, {"smiles": "CN(C)C(=O)C(CCN1CCC(O)(c2ccc(Cl)cc2)CC1)(c1ccccc1)c1ccccc1", "note": "[Loperamide, loperamide]", "values": [{"measurement": "Permeability (Log Pe, cm/sec) Microvessel lipid + cholesterol (MVLC)", "setting": "[3]", "result": "−1.97 ± 0.08", "unit": "cm/sec"}]}, {"smiles": "CN(C)C[C@H]1CCCC[C@]1(O)c1cccc(O)c1", "note": "[O-desmethyl tramadol, O-desmethyltramadol]", "values": [{"measurement": "Permeability (Log Pe, cm/sec) Porcine polar brain lipid (PBL)", "setting": "[1]", "result": "−0.97 ± 0.04", "unit": "cm/sec"}]}, {"smiles": "COc1ccc2c3c1O[C@H]1C(=O)CC[C@@]4(O)[C@@H](C2)N(C)CC[C@]314", "note": "[Oxycodone, oxycodone]", "values": [{"measurement": "Ability to cross the dodecane barrier", "setting": "[2]", "result": "unable to cross the barrier"}]}, {"smiles": "COc1cccc(C2(O)CCCCC2CN(C)C)c1", "note": "(centres unmarked) [Tramadol]", "values": [{"measurement": "Papp", "setting": "in vitro [6]", "result": 117, "unit": "×10⁻⁶ cm/s"}]}]}
